Structures are written as SMILES. Entries after “also recorded” stand apart in the source; their conditions may differ.

Test [1] deals with lymphoma cells (Jurkat cells). Nature of the test: cell death assay with inhibitors. The test is classed as cell-based. The note with it: SB202190 20 μM; HAMLET 7-49 μM, 3 h. As for the experimental part: GAPDH was used as a loading control.
(§1) Cells were detached from cell culture flasks with versen (0.2 g EDTA in 200 ml H2O and 800 ml PBS), washed with PBS and resuspended in serum-free RPMI-1640. HAMLET dissolved in PBS was incubated with cells (0.5×10^6/ml for A549, A498 and HeLa cells; 1×10^6/ml for Jurkat) at 37° C. FCS was added after 1 hour. Cell death was quantified by trypan blue exclusion (Chroma Gesellschaft Schmid & Co) or by measuring ATP levels (ATPlite Kit, PerkinElmer, Infinite 200, Tecan). Light images were captured using the HOLOMONITOR™ M2 digital holographic microscope (Phase Holographic Imaging AB, Lund, Sweden).
(§2) For studies with inhibitors, cells were pretreated for 30 minutes. Inhibitors used were Gadolinium chloride (GdCl3, 100 μM), Barium chloride (BaCl2, 1 mM), Ruthenium red (30 μM), tetrandrine (10 μM) and amiloride (1 mM), all from Sigma Aldrich. For p38 inhibition, SB202190 (20 μM, Sigma Aldrich) or BIRB796 (10 μM, Axon Medchem) dissolved in DMSO was used. The wells were washed twice with PBS and new medium with inhibitor was added. For RNA interference, FlexiTube siRNA Premixes against MAPK11 (SI00606053), MAPK14 (SI00300769) and All Star Negative Control siRNA (SI03650318) from Qiagen was used. A549 forward was transfected using 25 nM final siRNA concentration in 24-well plate. After 48 hours, knockdown was examined by Western blot (anti-p38, 1:1000, Cell Signaling) and RT-PCR (MAPK14, QT00079345, QIAGEN).
(§3) To examine if functional ion channels are important for the tumoricidal activity of HAMLET, A549 lung carcinoma cells in suspension were pretreated with the channel inhibitors for 30 minutes and exposed to increasing concentrations of HAMLET for three hours.

The test system of test [2] is p38, HSP27, ERK1/2 in kidney and lung carcinoma cells. Briefly: MAPK phosphorylation (phospho-MAPK antibody arrays, Western blot). It counts as cell-based, human. The source says:
Equal volumes of lysates were separated by SDS-PAGE on 4-12% Bis-Tris gels (Invitrogen) and blotted onto PVDF membranes. For other Western blots, 200,000 cells were allowed to adhere overnight in a 6-well plate. After HAMLET treatment the cells were washed with PBS and lysed in M-PER lysis buffer (Pierce) containing Complete protease inhibitor cocktail and PhosSTOP phosphatase inhibitor cocktail (both from Roche). The detached cells were collected by centrifugation. The lysates were cleared by centrifugation and protein concentrations were measured using the DC Protein Assay (Bio-Rad Laboratories, Hercules, Calif.). Equal amounts of protein were separated by SDS-PAGE on 4-12% Bis-Tris gels (Invitrogen) and blotted onto PVDF membranes (GE Healthcare). Membranes were saturated with BSA (GAPDH) or nonfat dry milk (phospho-p38, p38, phospho-ERK1/2, ERK1/2) and incubated with anti-p38, anti-phospho-p38, anti-ERK1/2, anti-phospho-(Thr202/Tyr204)-p44/42 (all 1:500-1000, Cell Signaling Technology), anti-ATF6 (1:1000, IMG-273, Imgenex), anti-phospho-eIF2α (Ser51), (1:500, Cell Signaling Technology) or anti-GAPDH (1:3000-5000, Novus Biologicals) antibodies followed by horseradish peroxidase-conjugated anti-rabbit (1:1000, DakoCytomation, Glostrup, Denmark) or anti-mouse (1:40000-50000, Novus Biologicals) antibodies for staining. Bound antibodies were detected with ECL Plus Western Blotting Reagent (GE Healthcare, Little Chalfont, UK) and GelDoc equipment (Bio-Rad Laboratories, Hercules, Calif.). If required, membranes were stripped with Restore Western Blot Stripping Buffer (Pierce, Rockford, Ill.), blocked and reprobed with new antibodies. MAP kinase phosphorylation was analyzed on a Human Phospho-MAPK array (Proteome Profiler Array, R&D Systems) as per the manufacturer's instruction. Band and spot intensities were quantified using ImageJ (Abramoff et al., July 2004, Biophotonics International). Cytokine quantification (IL6, IL8, TNFα) was performed on an […] 1000 immunoassay system (Siemens Diagnostics).
P38 MAPKs are activated by dual phosphorylation on conserved threonine and tyrosine residues by MKK3/6 and when phosphorylated, a wide variety of effector proteins, including MAPKAPK2 kinases, HSP27 chaperones and ATF2 and CHOP transcription factors become active (Cuenda et al., 2007, Biochimica et Biophysica Acta 1773: 1358-1375).
A general note: Immunoblotting shows a protein as a band on a membrane.

Test [3] concerns A549 lung carcinoma cells. Nature of the test: cell death assay (trypan blue exclusion, ATP levels). The test is classed as cell-based, human. The note with it: for effect of p38 inhibitor on death in response to HAMLET: SB202190 20 μM or BIRB796 10 μM, HAMLET 3 h. As for the experimental part: as §1, §2, §3
A549 cells were seeded to a density of 0.8-1.0×10^6 cells/well in RPMI without FCS. Different volumes of HAMLET/oleate and oleic acid solutions were added. The cells were incubated for 1 hour at 37° C. 5% CO2 for 1 hour before 50 μl of FCS (5% final concentration) were added to the wells. The cells were then further incubated for additional 2 hours before the viability were determined by trypan blue exclusion and ATP measurements.

The subject of test [4] is kidney carcinoma (A498) cells. Briefly: cell death assay with p38 inhibitors. The test is classed as cell-based, human. The note with it: SB202190 20 μM or BIRB796 10 μM; HAMLET 3 h. The method, then:
FIG. 4. p38 inhibition rescues carcinoma and lymphoma cells from death and morphological change in response to HAMLET. (A, B) p38 inhibition (SB202190, 20 μM) rescued carcinoma (A549 and A498) and T-cell lymphoma (Jurkat) cells from death in response to HAMLET (7-49 μM, 3 h). Viability was quantified by Trypan blue exclusion (A) or as ATP levels (B). Data are means+SEMs for 3 independent experiments. (C) Real-time images of cell morphology after HAMLET exposure, showing that p38 inhibition prevents morphological changes in carcinoma cells (nuclear condensation, rounding up and blebbing). (D-E) A549 lung carcinoma cells were transfected using siRNA against p38α/MAPK14 and/or p38β/MAPK11 or non-targeting siRNA. Relative MAPK11 and MAPK14 mRNA levels are shown (MAPK/GAPDH, in % of non-transfected cells) as means+SEMs for 4 independent experiments. […] (F) The cytotoxic effect of HAMLET was quantified 48 hours after transfection as reduction in ATP levels. […]
FIG. 12. […] Viability was quantified by ATP levels.
Cells were detached from cell culture flasks with versen (0.2 g EDTA in 200 ml H2O and 800 ml PBS), washed with PBS and resuspended in serum-free RPMI-1640. […] Cell death was quantified by trypan blue exclusion (Chroma Gesellschaft Schmid & Co) or by measuring ATP levels (ATPlite Kit, PerkinElmer, Infinite 200, Tecan). […]

The test system of test [5] is lung carcinoma, kidney carcinoma and lymphoma cells. Nature of the test: HAMLET-induced change in cell morphology (light microscopy, real-time imaging). The test is classed as cell-based. The method, then:
as §1
For live cell imaging, cells were pre-treated with SB202190 for 30 minutes, nuclei were stained with Hoechst 33342 (Invitrogen) and Alexa-Fluor 568-labeled HAMLET (10% labeled HAMLET, Molecular Probes) was added in serum-free medium. FCS was added after 1 hour. Fluorescence was detected with pinhole settings corresponding to 1 airy unit. The cells were kept at 37° C., 5% CO2 and examined unfixed by LSM510 DUO confocal microscopy (Carl Zeiss).
To examine if the HAMLET-induced change in carcinoma cell morphology was modified by the channel inhibitors, lung carcinoma, kidney carcinoma and lymphoma cells were exposed to HAMLET in the presence or absence of ion channel inhibitors and examined by light microscopy (FIG. 2C).
To determine if p38 signaling was involved in cell death, we inhibited p38α and p38β in lung and kidney carcinoma and Jurkat lymphoma cells with two small-molecule p38 inhibitors: SB202190, a highly specific pyridinyl-imidazole inhibitor; and BIRB796, a diaryl urea compound, which bears little structural similarity to SB202190 (Fabian et al., 2005, Nature Biotechnology 23: 329-336), ([…] and FIG. 12B). […] The effect of p38 inhibition on cell death was also observed by real-time confocal imaging of lung carcinoma cells exposed to fluorescently labeled HAMLET.

In test [6] the test system is lung carcinoma cells (A549). Briefly: intracellular Ca^2+, Fluo-4, real time confocal microscopy. The test is classed as cell-based, human. The note with it: 30 minutes pretreatment, HAMLET 35 μM. As for the experimental part: To examine if HAMLET modulates ion channel activity in tumor cells, we first quantified changes in intracellular Ca^2+ and K^+. Lung carcinoma cells were first preloaded with the Fluo-4 Ca^2+ fluorophore Fluo-, exposed to HAMLET (35 μM) and examined by real time confocal microscopy for changes in fluorescence intensity (FIG. 1A). The Ca^2+ ionophore A23187, which acts as a Ca^2+ shuttle across cell membranes, was used as a positive control (Abbott et al., 1979, Antimicrobial Agents and Chemotherapy 16, 808-812).
(§4) To distinguish Ca^2+ mobilization from intracellular stores from the influx of extracellular Ca^2+, EGTA was then added to the cell medium. […] K^+ fluxes across tumor cell membranes were subsequently quantified under the same experimental conditions, using the fluorophore FLUXOR™, which fluoresces after thallium has entered cells through K^+ channels.
(§5) To further characterize ion channel activation by HAMLET, carcinoma cells were pretreated with defined channel blockers. Amiloride is a sodium channel inhibitor with effects on mechanosensitive channels, barium chloride (BaCl2) is a general K^+ channel inhibitor, gadolinium chloride (GdCl3) inhibits mechanosensitive channels, Ruthenium red is a general Ca^2+ inhibitor and tetrandrine inhibits large conductance, Ca^2+ activated K^+ channels. The carcinoma cells were preincubated with Fluo-4 as described above, pretreated with each of the channel inhibitors for 30 minutes, exposed to HAMLET (35 μM) and examined by real time confocal imaging. Furthermore, cells treated with EGTA were compared to cells with intact extracellular Ca^2+ levels, to distinguish the early peak from the subsequent influx of Ca^2+ (FIG. 1B, Table in FIG. 8).

In test [7] the test system is potassium channels in A549, lung carcinoma cell lines. Nature of the test: FLUXOR potassium (K^+) channel assay, Thallium (Tl^+) indicator. To be noted: carcinoma cells, 30 minutes pretreatment, HAMLET 35 μM. The test is classed as cell-based, human. The method, then:
The FLUXOR™ potassium (K^+) channel assay was performed on the TECAN infinite F200 (Tecan Group, Switzerland), according to the manufacturer's instructions (Invitrogen). Briefly, this involved FLUXOR™ loading buffer (Hank's Balanced Saline Solution, (HBSS) buffered with 20 mM HEPES and pH adjusted to 7.4 with NaOH. POWERLOAD™ concentrate and water-soluble Probenecid were used respectively to enhance the dye solubility and retention, respectively. Media were removed from the cell plates manually, and 80 μL of loading buffer containing the FLUXOR™ dye mix was applied to each well. Once inside the cell, the nonfluorescent AM ester form of the FLUXOR™ dye is cleaved by endogenous esterases into a thallium-sensitive indicator. The dye was loaded for 60 minutes at room temperature and then removed with the supernatant. After washing with dye-free PBS buffer, a final volume of 80 μL assay buffer containing water-soluble probenecid was added. Cells received one of the following channel inhibitors: 3.3 μL per well of 30 mM amiloride, 3.0 μL of 32 mM BaCl2, 1.8 μL of 5.4 mM gadolinium, 3 μL 3.2 mM tetrandrine and 2.3 μL of 2.6 mM ruthenium red, and were then incubated at room temperature (23-25° C.) for 30 minutes to allow equilibration of the test compounds. Prior to injection, stimulation buffer was prepared from the chloride-free buffer and thallium reagents provided in the kit as well as HAMLET, to achieve a final added concentrations of 2 mM free Tl+ and 35 μM HAMLET after 1:5 dilution upon injection of the stimulus buffer onto cells that had been loaded with FLUXOR™ dye.
as §4
Potassium channel activity was therefore measured in A549, lung carcinoma cell lines using an indicator, which emits fluorescence signal upon entering the cells via opened potassium channels, Thallium (Tl^+) indicator (FIG. 18).

For test [8], the system named is Human renal tubular epithelial cells (HRTEC). Briefly: Ca^2+ and K^+ levels in healthy, differentiated cells in primary culture. The test is classed as cell-based. The method, then:
Human renal tubular epithelial cells (HRTEC) were preincubated with Fluo-4 as described, exposed to HAMLET (35 μM) and examined by real time confocal microscopy.
as §5

Take `Oc1ccc(-c2nc(-c3ccncc3)c(-c3ccc(F)cc3)[nH]2)cc1` [SB202190]: the “effect of p38 inhibitor on death in response to HAMLET” value in test [1] is reported as “rescued”; in test [3] it was “rescued; also recorded: clearly attenuated”; in test [4] it was “rescued”. In addition, the “effect of p38 inhibitor on p38 and HSP27 phosphorylation upon HAMLET treatment” value in test [2] was “marked decrease in p38 and HSP27 phosphorylation”.

Turning to `[Cl][Gd]([Cl])[Cl]` [GdCl3, Gadolinium chloride, reference compound], the “effect of ion channel inhibitor on HAMLET-induced change in cell morphology” value in test [5] (light microscopy) is given as “did not prevent the morphological changes”. Moreover, in test [6], the “effect of channel blocker on first, EGTA insensitive Ca^2+ peak in response to HAMLET” value is listed as “inhibited”. Also, the “effect of channel blocker on K^+ flux in response to HAMLET” value in test [7] was “strongly inhibited”. In test [8], the “effect of channel blocker on response to HAMLET in healthy cells” value was “no effect”. Further, in test [3] (30 minutes pretreatment, HAMLET three hours), the “effect of channel inhibitor on HAMLET-induced cell death” value is listed as “no effect on viability”.

Turning to `Cc1ccc(-n2nc(C(C)(C)C)cc2NC(=O)Nc2ccc(OCCN3CCOCC3)c3ccccc23)cc1` [BIRB796], in test [5] (BIRB796 10 μM, HAMLET 35 μM, 3 h), the “effect of p38 inhibitor on morphological changes associated with HAMLET induced cell death” value was “diminishes the morphological changes”. For the same molecule, the “effect of p38 inhibitor on death in response to HAMLET” value in test [3] and in test [4] was “rescued” in each case.

The values above are taken from patent US9487561B2, “Biologically active complex and its preparation” (HAMLET PHARMA AB, priority 2010, dated 2016).
